Test system: human gut bacterial isolates
Experiment: In vitro bacterial growth studies (MIC, growth curves) on a panel of 45 isolates
Type: cell-based
Excerpt: 42/45 of the tested isolates are commonly found in the human gut microbiota, with the exceptions of Bacteroides acidifaciens (found in mice), Delftia acidovorans (found in soil), and Bacillus subtilis 168 (found in soil). Each of these strains was obtained from the Deutsche Sammlung von Mikroorganismen and Zellkulturen (DSMZ) culture collection. A single colony of each isolate was subcultured in Bacto Brain Heart Infusion (BD Biosciences, 37 g/L) supplemented with L-cysteine-HCl (0.05%, w/v), menadione (1 μg/mL), and hemin (5 μg/mL) (referred to hereafter as BHI+) for 48 hours in an anaerobic chamber (Coy Laboratory Products) at 37° C. with an atmosphere composed of 2-3% H2, 20% CO2, and the balance N2. This subculture was diluted down to an OD600 of 0.08-0.1, which was then further diluted 100-fold, and then used to inoculate a microtiter plate with 2-fold serial dilutions of MTX concentrations ranging from 0-900 μg/ml. Plates were incubated at 37° C. with shaking in an Eon Microplate Spectrophotometer (BioTek Instruments, Inc) over a 48 to 72-hour period in the anaerobic chamber. Growth was monitored every 15 minutes at OD600 and corrected for background (no growth control). Data were exported using the Gen5 (v 2.0) software. […] As with any in vitro system, the growth of cells may be dependent on the growth medium used, and for these studies, a rich medium (BHI+) was used.
Growth parameters (carrying capacity, time to mid-exponential and growth rate) were calculated in R using GrowthCurveR (Sprouffske, K., and Wagner, A. (2016), BMC Bioinformatics 17, 1726) (v0.2.1). Curves that could not be fit by the software (i.e., generated a warning/error message) were excluded from further analysis. […] Determination of dose-dependency was done by fitting a linear regression with methotrexate concentration as the independent variable and the estimated growth parameter as the dependent variable using lm from the stats package (v3.5.1). For rescue studies, as above, growth parameters (carrying capacity, time to mid-exponential, growth rate, and area under the curve) were calculated in R using GrowthCurveR (Sprouffske and Wagner, 2016) (v0.2.1). Four isolates were evaluated with varying sensitivity to MTX (B. thetaiotaomicron, B. vulgatus, C. innocuum and C. symbiosum). C. asparagiforme was excluded because rescue of growth would be difficult to identify in this MTX resistant strain (FIG. 2D). Growth curves at 9 concentrations of MTX tested against 7 concentrations of folic acid were measured. Determination of dose-dependency at each tested concentration of MTX was done by fitting a linear regression with folic acid or leucovorin concentration as the independent variable and the estimated growth parameter as the dependent variable using lm from the stats package (v3.5.1). […] A p-value cutoff of p<0.05 was used to identify effects that were dose-dependent based on the linear regression.

## CN(Cc1cnc2nc(N)nc(N)c2n1)c1ccc(C(=O)N[C@@H](CCC(=O)O)C(=O)O)cc1 [MTX, methotrexate]
22-220 μM or 10-100 μg/ml MTX, 5-15 of 45 isolates
  percentage of tested isolates inhibited at the estimated concentration in the proximal GI tract: 11-33%
45 isolates, MTX 1.7-900 μg/ml, 2-2,000 μM, 48 hours, BHI+, anaerobic
  Minimal inhibitory concentration (MIC): ranged across the full gradient
45 isolates, maximum 900 μg/ml, 48 hours
  number of isolates resistant to the maximum concentration tested: 11
MICs of isolates spanning 4 major phyla (FIG. 2B)
  sensitivity of Bacteroidetes relative to the other phyla: tended to be sensitive
MTX concentrations predicted to be found in the human gut, 36/45 isolates
  isolates with full growth inhibition or alterations in growth curve parameters: 80%
sub-MIC concentrations, subset of strains with growth curves
  percentage of tested isolates with at least one growth parameter affected in a dose-dependent manner: 78%

— US20220160712A1, “METHODS OF TREATING RHEUMATOID ARTHRITIS AND FOR PREDICTING THE RESPONSE TO METHOTREXATE” (CHAN ZUCKERBERG BIOHUB, INC., priority 2020, published 2022)
